Patent publication US12291522B2, “Galectin-3 inhibitors” (BRISTOL-MYERS SQUIBB COMPANY, priority 2020, dated 2025)
pIC50: −log10 of the molar value. Like-named read-outs stand apart in the source and are kept apart here.

Assays:
[1] = target: T1, hCRBN (NanoLuc-CRBN fusion construct in HEK-293 cells) (Homo sapiens, UniProt Q96SW2); assay: CRBN BRET Target Engagement; type: cell-based; settings: NanoLuc-CRBN transfected HEK-293 cells, BRET with CRBN Probe
T1 construct: expressed in transfected cells; host or cells: HEK-293
Method: CRBN BRET Target Engagement (hCRBN IC50 (μM))
NanoLuc-CRBN fusion construct was transfected in HEK-293 cells using FuGENE HD (Promega) according to the manufacturer's protocol. In brief, Nluc-CRBN was diluted into Transfection Carrier DNA (Promega) 1:10 (mass/mass), to which FuGENE HD was 1:3 (μg DNA:μL FuGENE HD). One part (vol) of DNA:FuGENE HD complexes were combined with 20 parts (vol) of HEK-293 cells suspended at a density of […]. Cells were incubated for ˜20 hr at 37° C./5% CO2. Following transfection, cells were washed and resuspended at 200,000 cells/mL in OptiMEM without phenol red (Gibco).
For BRET measurements, cells were seeded in a 384-well nonbinding surface plate (Corning) plate for a final count of 10,000 cells/well. Compounds were dissolved at 10 mM in dimethylsulfoxide (DMSO) and evaluated at eleven concentrations using a high concentration of […]. CRBN Probe was used for equilibrium measurements, employing a final concentration of approximately EC50-80. For live-cell measurements, 20 nM of CRBN Probe was added. For the live-cell assay conditions, the plates were incubated for 2 hours at 37° C./5% CO2. NanoBRET NanoGlo Substrate and Extracellular Nanoluc Inhibitor (Promega) were added according to manufacturer's guidelines. For lytic cell measurements, digitonin was added to the cells to a final concentration of 50 μg/mL and 20 nM of CRBN Probe was added. To measure NanoBRET in permeabilized cells, extracellular Nluc inhibitor was omitted during the detection step. For all BRET experiments, the Envision 2015 (Perkin Elmer) equipped with a BRET2 Enh mirror, BRET 647 nM/75 nM Bandwidth and BC703 460 nM/80 nM Bandwidth filters was used for readouts. Each read was integrated for 0.5 s.
To determine compound potency (IC50), BRET ratios for each dilution series was first normalized to a % Inhibition value via Equation 1, where “S” represents Sample BRET, “B” represents Background BRET, and “T” represents Total BRET. In this equation, the background control (B) consists of NanoLuc-CRBN expressing cells and no CRBN Probe. The total BRET Ratio (T) consists of NanoLuc-CRBN expressing cells, CRBN Probe, and an amount of DMSO at a concentration equivalent to that added when testing compounds.
Following normalization, the percent inhibition values are plotted as a function of compound concentration and fit to Equation 2. […]

[2] = target: His-tagged recombinant human Gal-3 (hGal-3) (Homo sapiens, UniProt P17931); assay: Gal-3 HTRF assay (His-tagged hGal-3 / B-ASF); type: binding; settings: 15 nM hGal-3, 15 nM B-ASF
Method: ASSAY BUFFER Composition: 25 mM HEPES, 100 mM NaCl, 0.005% Tween 20, 0.05% BSA prepared in sterile water (all reagents from Sigma).
• Positive Control: 100% DMSO (1 μL)+His-tagged hGal-3 (20 μL)+B-ASF (20 μL)+Anti-His Terbium Antibody (5 μL)+Strep d2 Antibody (5 μL). • Negative Control: 100% DMSO (1 μL)+His-tagged hGal-3 (20 μL)+Anti His Terbium Antibody (5 μL)+Strep d2 Aantibody (5 μL). Stocks Preparation:
PROTOCOL: The Gal-3 assays were performed in 384 white Opti plates in three replicates at room temperature with gentle shaking at 250-300 rpmFrom the original stocks, […] working stock concentrations of His-tagged recombinant human Gal-3 (hGal-3) and that of B-ASF were prepared. From the working stock, 20 μL of hGal-3 (15 nM) and 20 μL B-ASF (15 nM) were added to the plates. In Negative Control, only hGal-3 was added. A concentration range of 50× working stocks were prepared for the compounds in 100% DMSO. Aliquots of luL of the compounds were added to the wells and pre-incubated with 20 μL hGal-3 per well for 30 minutes Then 20 μL B-ASF wereadded and incubated for another 1 hour. To detect the signal, 5 μL (final conc. of 1.0 nM) terbium labelled Anti-His antibody was added and incubated for 30 min followed by adding 5 μL (final conc. of 20 nM) Streptavidin d2 and incubation for another 1 hour. The assay signal was detected using HTRF screen protocol (Excitation wavelength=340 nm, emission wavelength=615 nm/665 nm) on Envision 2104 Multilabel Reader. Data analysed using Toolset and Curve Master. Results are reported in the experimental section (IC50 in μM).

[3] = target: T2, Gal3 (Human Galectin-3) in THP-1 cells (Homo sapiens, UniProt P17931); assay: ELISA Gal3 Degradation Assay in THP-1 Cells; type: cell-based; settings: 48 hours, culture media Gal3 by ELISA
T2 construct: host or cells: THP-1
Method: [formula] ELISA Gal3 Degradation Assay in THP-1 Cells
THP-1 cells (ATCC, Cat #TIB-202), a human monocyte cell line derived from leukemia were plated at 2E6 cells/mL in 200 uL/well of RPMI 1640 (ThermoFisher, Cat #11835) in 96-well plates. Cells were treated with DMSO as a control and various concentrations of compounds for 48 hours. After the treatment, the culture media were collected. The PBS washed cell pellets were lysed in Lysis Buffer (Cell Signaling, Cat #9803) supplemented with 1XProtease Inhibitor Cocktail (Cell Signaling, Cat #5872). Gal3 levels in culture media and cell lysates were quantified by ELISA assays (Human Galectin-3 DuoSet ELISA kit, R&D Systems, Cat #DY1154) according to manufacturer's instructions. The cell culture media were also used for the assessment of cellular toxicity (LDH Assay kit, R&D Systems, DY994). The IC50 (degradation concentration at 50%) values were calculated based on the cellular Gal3 protein levels using DMSO as the control.

[4] = test 1, read-out: Supernatant (IC50) test 1
[5] = test 2, read-out: Supernatant (IC50) test 2

T1 sequence (Q96SW2 whole entry, the tested form may be a part): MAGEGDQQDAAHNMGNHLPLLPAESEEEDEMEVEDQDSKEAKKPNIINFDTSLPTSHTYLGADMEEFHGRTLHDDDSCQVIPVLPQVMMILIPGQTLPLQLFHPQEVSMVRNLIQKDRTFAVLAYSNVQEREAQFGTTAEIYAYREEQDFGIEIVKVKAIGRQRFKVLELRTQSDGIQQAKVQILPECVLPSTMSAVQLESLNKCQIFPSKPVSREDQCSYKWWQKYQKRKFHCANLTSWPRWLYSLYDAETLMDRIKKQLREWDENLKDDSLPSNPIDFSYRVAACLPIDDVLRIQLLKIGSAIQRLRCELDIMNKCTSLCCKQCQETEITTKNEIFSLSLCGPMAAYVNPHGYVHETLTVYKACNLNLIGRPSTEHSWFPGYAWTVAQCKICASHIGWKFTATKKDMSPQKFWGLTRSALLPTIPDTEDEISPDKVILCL
T2 sequence (P17931 whole entry): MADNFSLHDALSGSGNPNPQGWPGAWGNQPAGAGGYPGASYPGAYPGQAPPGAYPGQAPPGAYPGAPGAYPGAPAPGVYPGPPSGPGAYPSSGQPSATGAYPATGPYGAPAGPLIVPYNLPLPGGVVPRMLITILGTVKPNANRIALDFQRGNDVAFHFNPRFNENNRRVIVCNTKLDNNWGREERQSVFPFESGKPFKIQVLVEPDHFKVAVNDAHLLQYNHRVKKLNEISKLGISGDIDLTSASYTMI
Chain of His-tagged recombinant human Gal-3 (hGal-3) (P17931 whole entry): as above

SMILES | pIC50 [1] | pIC50 [2] | pIC50 [3, 4] | pIC50 [3, 5]
Cc1nc([C@@H]2O[C@H](CO)[C@H](O)[C@H](n3cc(-c4cc(F)c(Cl)c(F)c4)nn3)[C@H]2OCC(=O)N[C@H]2C[C@@H](Oc3ccc(C(=O)Nc4ccc5c(c4)CN(C4CCC(=O)NC4=O)C5=O)nc3)C2)n(-c2cc(Cl)ccc2C(F)(F)F)n1 (stereo partly drawn) [Example 4, 5-(cis-3-(2-(((2S,3R,4S,5R,6R)-2-(1-(5-Chloro-2-(trifluoromethyl)phenyl)-3-methyl-1H-1,2,4-triazol-5-yl)-4-(4-(4-chloro-3,5-difluorophenyl)-1H-1,2,3-triazol-1-yl)-5-hydroxy-6-(hydroxymethyl)tetrahydro-2H-pyran-3-yl)oxy)acetamido)cyclobutoxy)-N-(2-(2,6-dioxopiperidin-3-yl)-1-oxoisoindolin-5-yl)picolinamide] | 6.76 | 7.09 | 7.17 | 7.02
Cc1nc([C@@H]2O[C@H](CO)[C@H](O)[C@H](n3cc(-c4cc(F)c(Cl)c(F)c4)nn3)[C@H]2OCC(=O)N[C@H]2C[C@H](Oc3ccc(C(=O)Nc4ccc5c(c4)CN(C4CCC(=O)NC4=O)C5=O)nc3)C2)n(-c2cc(Cl)ccc2C(F)(F)F)n1 (stereo partly shown) [Example 18] | 6.96 | 6.66 | 7.89 | 7.85
Cc1nc([C@@H]2O[C@H](CO)[C@H](O)[C@H](n3cc(-c4cc(F)c(Cl)c(F)c4)nn3)[C@H]2OCC(=O)N[C@H]2C[C@@H](Oc3ccc(C(=O)Nc4ccc5c(c4)CN([C@H]4CCC(=O)NC4=O)C5=O)nc3)C2)n(-c2cc(Cl)ccc2C(F)(F)F)n1 [Example 5, 5-(cis-3-(2-(((2S,3R,4S,5R,6R)-2-(1-(5-chloro-2-(trifluoromethyl)phenyl)-3-methyl-1H-1,2,4-triazol-5-yl)-4-(4-(4-chloro-3,5-difluorophenyl)-1H-1,2,3-triazol-1-yl)-5-hydroxy-6-(hydroxymethyl)tetrahydro-2H-pyran-3-yl)oxy)acetamido)cyclobutoxy)-N-(2-((S)-2,6-dioxopiperidin-3-yl)-1-oxoisoindolin-5-yl)picolinamide] | 7.41 | 7.08 | > 8.00 | > 8.00
Cc1nc([C@@H]2O[C@H](CO)[C@H](O)[C@H](n3cc(-c4cc(F)c(Cl)c(F)c4)nn3)[C@H]2OCC(=O)N2CC(COc3ccc(C(=O)Nc4cccc5c4CN(C4CCC(=O)NC4=O)C5=O)nc3)C2)n(-c2cc(Cl)ccc2C(F)(F)F)n1 (stereo partly shown) [Example 32] | 4.86 | 7.03 | 5.90 | 5.80
Cc1nc([C@@H]2O[C@H](CO)[C@H](O)[C@H](n3cc(-c4cc(F)c(Cl)c(F)c4)nn3)[C@H]2OCC(=O)N2CC(COc3ccc(C(=O)Nc4ccc5c(c4)C(=O)N(C4CCC(=O)NC4=O)C5)cc3)C2)n(-c2cc(Cl)ccc2C(F)(F)F)n1 (stereo partly drawn) [Example 11, 4-((1-(2-(((2S,3R,4S,5R,6R)-2-(1-(5-Chloro-2-(trifluoromethyl)phenyl)-3-methyl-1H-1,2,4-triazol-5-yl)-4-(4-(4-chloro-3,5-difluorophenyl)-1H-1,2,3-triazol-1-yl)-5-hydroxy-6-(hydroxymethyl)tetrahydro-2H-pyran-3-yl)oxy)acetyl)azetidin-3-yl)methoxy)-N-(2-(2,6-dioxopiperidin-3-yl)-3-oxoisoindolin-5-yl)benzamide] | 5.90 | 7.40 | 7.46 | 7.57
Cc1nc([C@@H]2O[C@H](CO)[C@H](O)[C@H](n3cc(-c4cc(F)c(Cl)c(F)c4)nn3)[C@H]2OCC(=O)N[C@H]2C[C@@H](Oc3ccc(C(=O)Nc4ccc5c(c4)CN(C4CCC(=O)NC4=O)C5=O)cc3)C2)n(-c2cc(Cl)ccc2C(F)(F)F)n1 (stereo partly drawn) [Example 3, 4-(cis-3-(2-(((2S,3R,4S,5R,6R)-2-(1-(5-Chloro-2-(trifluoromethyl)phenyl)-3-methyl-1H-1,2,4-triazol-5-yl)-4-(4-(4-chloro-3,5-difluorophenyl)-1H-1,2,3-triazol-1-yl)-5-hydroxy-6-(hydroxymethyl)tetrahydro-2H-pyran-3-yl)oxy)acetamido)cyclobutoxy)-N-(2-(2,6-dioxopiperidin-3-yl)-1-oxoisoindolin-5-yl)benzamide] | 6.90 | 7.15 | > 8.00 | 7.32
Cc1nc([C@@H]2O[C@H](CO)[C@H](O)[C@H](n3cc(-c4cc(F)c(Cl)c(F)c4)nn3)[C@H]2OCC(=O)N2CC3(CC(Oc4ccc(C(=O)Nc5ccc6c(c5)CN(C5CCC(=O)NC5=O)C6=O)cc4)C3)C2)n(-c2cc(Cl)ccc2C(F)(F)F)n1 (stereo partly shown) [Example 34] | 5.99 | 6.96 | 5.34 | 6.68
